Measurements reported in patent US7268118B2, “Thymosin β4 compositions” (United States of America as represented by The Secretary of …, priority 1998, dated 2007).

Columns and labels:
[1] = tested on: full thickness cutaneous rat wound; experiment: Full thickness punch biopsy wound healing in rats; type: in vivo; conditions: for decrease in wound width relative to saline treated controls: intraperitoneal 60 μg in 300 μl
Experimental: Full thickness 8 mm punch biopsy wounds were made on the dorsal surface of rats as previously reported (Bhartiya et al., J. Cell. Physiol. 150:312, 1992; Sihhu et al., J. Cell. Physiol. 169:108, 1996) and Tβ4 was given topically at the time of wounding (5 μg in 50 μl) and again after 48 hours. Controls for the topical treatment received identical amounts of saline at the time of wounding and at 48 hours. Additional rats received intraperitoneal injections at the time of wounding (60 μg in 300 μl) and again every other day (e.g., days 0, 2, 4, and 6). Controls for these animals received identical amounts of saline intra-peritoneally on the same injection schedule. On days 4 and 7 post-wounding, measurements were made on the wound size. At days 8 and 9 post-wounding, tissue was collected and fixed in 10% buffered formalin. The samples were sectioned and stained with H&E and Masson's Trichrome (American Histolabs, Gaithersburg, Md.).
Histological sections were used to measure the re-epithelialization and the contraction of the wound using an ocular micrometer. Epidermal migration was determined by measuring the lengths of the tongues of epithelium migrating form either side of the wound over the wound bed from the zone of proliferation at the margin of the uninjured and wounded skin. Epidermal thickness was also measured beginning at the junction of the uninjured and proliferating epidermis. The thickness was measured vertically from the basement membrane to the most superficial layer of the migrating epidermis at every 200 microns. The mean epidermal thickness of each migrating tongue of epidermis was then computed from each wound. Vessel counts were performed by first identifying vascular spaces by their endothelial lining. All such vessels in the wound bed were counted including those at the junction of the dermis and the subcutis, since angiogenesis into the wounds occurs to a great extent from these vessels. The numbers were averaged into vessel counts per 10 high powered fields (40×).
The effect of Tβ4 on wound healing was studied in a full thickness cutaneous rat wound model. […] This model allowed measurement of two parameters: the re-epithelialization (gap) and the contraction (width) of the wound.

[2] = tested on: primary keratinocytes; experiment: Keratinocyte migration assay in Boyden chamber; type: cell-based, mice
Experimental: Primary keratinocytes were prepared from either Balb/c or CD-1 newborn mice as described previously (Dlugosz et al., 1995). Cells were plated in calcium- and magnesium-free Eagle's Minimal Essential Medium (EMEM) containing 8% fetal calf serum treated with 8% Chelex (Bio-Rad Laboratories, Hercules, Calif.), 20 units/ml penicillin-streptomycin, and the calcium concentration was adjusted to 0.25 mM. The following day, cultures were washed with calcium- and magnesium-free phosphate buffered saline, treated briefly with Trypsin (Life Technologies, Gaithersburg, Md.), washed with culture medium and resuspended in EMEM containing 0.05 mM calcium. Cells were used immediately in migration assays.
Keratinocyte migration assays were carried out in Boyden chamber using 12 μm pore polyester membranes (Poretics, Livermore, Calif.) coated with a 0.1 mg/ml solution of collagen IV in dH2O (Trevigen, Gaithersburg, Md.). Filters were then dried at least 1 h. Cells were harvested using Versene or Trypsin (Life Technologies, Gaithersburg, Md.) and resuspended in Eagle's minimal essential medium with 0.05 mM Ca^2+. The bottom chamber was loaded with EMEM containing 0.01, 0.1, 10, 100, and 1000 ng/ml of synthetic Tβ4. […] The cells that migrated through the filter were quantitated by counting the center of each well at 10× using an Olympus CK2 microscope. […]

[3] = tested on: Corneal Epithelial Cell; experiment: Corneal epithelial cell migration assay in Boyden chamber; type: cell-based
Experimental: Corneal Epithelial Cell migration assays were carried out in Boyden chamber using 12 μm pore polyester membranes (Poretics, Livermore, Calif.) coated with a 0.1 mg/ml solution of collagen IV in dH2O (Trevigen, Gaithersburg, Md.). Filters were then dried at least 1 h. Cells were cultured and resuspended in Eagle's Minimal Essential Medium with 0.05 mM Ca^2+. The bottom chamber was loaded with EMEM containing 0.01, 0.1, 10, 100, and 1000 ng/ml of synthetic Tβ4. Conditioned medium from primary dermal fibroblasts and/or keratinocyte growth factor was added to several wells as a positive control. Cells were added to the upper chamber at a concentration of 50,000 cells per well. Chambers were incubated at 35 C/7% CO2 for 4-5 hours and the filters were then fixed and stained using Diff-Quik (Baxter Healthcare Corporation, McGraw Park, Ill.). The cells that migrated through the filter were quantitated by counting the center of each well at 10× using an Olympus CK2 microscope. Each condition was assayed in triplicate wells and each experiment was repeated four times with different preparations of cells. […] Migration was enhanced 2-3 fold over migration in the presence of media alone (FIG. 7) with the highest level of migration seen at 100 ng/ml of Tβ4.

[4] = tested on: de-epithelialized Rat corneas; experiment: In vivo corneal re-epithelialization
Experimental: To determine the effect of Tβ4 on corneal re-epithelialization in vivo, Rat corneas were de-epithelialized and treated with Tβ4. Filters were soaked in heptanol, applied to the eye for 30 seconds, and then the epithelium was scraped. Various concentration of Tβ4 in saline was applied to the eye and at 24 hours the rats were sacrificed. The eyes were fixed, sectioned and the degree of corneal epithelial migration (as measured in pixels) was determined using a microscope with an internal caliper by a masked observer.

[5] = tested on: wounds of steroid treated rats; experiment: Impaired healing model (hydrocortisone treated rats); type: in vivo, rat
Experimental: Steroid treatment reduces the rate of wound repair in mammals. Rats treated with steroids such as hydrocortisone serve as a model of impaired wound healing due to the delay observed in wound closure. Animals were injected intramuscularly everyday with hydrocortisone.

[6] = intraperitoneal injection, day 4
[7] = intraperitoneal injection, day 7

thymosin β4 [Tβ4]
increase in the number of vessels in treated wounds ([1]; 7 day wounds): about 2 fold | decrease in wound width as compared to the saline controls ([1]; FIG. 2, topical 5 μg in 50 μl, as early as 4 days after wounding, continued until day 7): 15% | Epidermal Migration ([1]; I.P.): 3168.3 ± 38.4 μm | Epidermal Thickness ([1]; I.P.): 135.0 ± 11.7 μm | Vessels/10 HPF ([1]; I.P.): 2415.0 ± 24.3 | Epidermal Migration ([1]; Topical): 3668.7 ± 56.6 μm | Epidermal Thickness ([1]; Topical): 142.3 ± 19.8 μm | Vessels/10 HPF ([1]; Topical): 2186.0 ± 11.8 | re-epithelialization of the wound (histology) ([1]; day 7, intraperitoneal 60 μg/300 μl on alternate days): Increased re-epithelialization | neovascularization of the dermis (histology) ([1]; day 7, intraperitoneal and topical): significant new capillaries | re-epithelialization of the wound (histology) ([1]; day 7, topical 5 μg/50 μl): complete reepithelialization | thickness of the migrating epidermis versus control ([1]; either Tβ4 treatment (I.P., topical)): no difference | effect on wound healing at lower dose ([1]; intraperitoneal 6 μg in 300 μl): no effect | effect on wound healing at lower dose ([1]; intraperitoneal 30 μg in 300 μl): reduced | decrease in wound width relative to saline treated controls ([1]; day 4): 18% | decrease in wound width relative to saline treated controls ([1]; day 7): 11% | decrease in gap size relative to saline treated controls ([1]; intraperitoneal, 4th day post wounding): 42% | migration of epidermal tongues as compared to controls ([1]; intraperitoneally treated wounds): statistically significant increase | number of macrophages in the wounds ([1]; rat, in vivo): No increases | effect on wound healing at lower dose ([1]; topical 0.5 μg in 50 μl): no effect | effect on wound healing at lower dose ([1]; topical 2.5 μg in 50 μl): reduced | wound healing as compared to untreated wounds ([1]; topical or intraperitoneal): significantly accelerated wound healing | increase in migration of epidermal tongues over the wound bed ([1]; topical treatment): 1.5 fold | decrease in gap length as compared to saline controls ([1]; topical, 4 days after wounding): 18% | decrease in width, treated versus controls ([1]; topical, time not stated (FIG. 2)): about 15% | decrease in gap, treated versus controls ([1]; topical, time not stated (FIG. 3)): about 15% | decrease in gap size ([1]; wounds treated for 7 days, route not stated): 62% | migration at the maximal responding dose versus positive control [2]: exceeded the positive control | keratinocyte migration over media alone ([2]; 4-5 hours, filters coated with collagen IV): 2-3 fold | corneal epithelial cell migration over media alone ([3]; 4-5 hours of exposure): 2-3 fold | concentration with the highest level of migration ([3]; tested 0.01-1000 ng/ml): 100 ng/mL | re-epithelialization of the cornea over untreated control ([4]; about 1 to 25 μg of Tβ4 in saline applied to the eye, 24 hours): 2 fold | inflammation of treated eyes compared to non-treated corneas ([4]; rat, in vivo): reduced inflammation | decrease in gap size [5, 6]: 28% | decrease in wound width [5, 6]: 14% | decrease in gap size [5, 7]: 26% | decrease in wound width [5, 7]: 10% | level of healing in steroid treated rats ([5]; topical or intraperitoneal): significant increase in the level of healing | gap or width closure compared to saline treatment ([5]; topical, day 4, N=3): ≤ 7% | decrease in gap compared to saline treatment ([5]; topical, day 7): 39% | decrease in wound width ([5]; topical, day 7): 23%
